Experimental data published in US20020137929A1, “1 - (3-heterocyclylphenyl) isothiourea, -isourea, -guanidine and -amidine herbicidal agents” (Intellectual Property Department, BASF Aktiengesellschaft, priority 1998, published 2002).

Key:
[1] = system: CHEAL (Lambsquarters, Common); experiment: Postemergence herbicidal evaluation; type: in vivo, Chenopodium album
In short: (§1)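 Each compound, dispersed in an acetone/water mix (50/50) carrying 0.5% TWEEN 20, is nozzle-sprayed at 40 psi on approximately two-week-old seedlings at about 0.0156–0.500 kg/ha. Plants are assessed 4–5 weeks afterward on a 0–9 scale relative to control; duplicate tests are averaged.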

[2] = system: IPOHE (Morningglory, Ivyleaf); experiment: Postemergence herbicidal evaluation; type: in vivo, Ipomoea hederacea
In short: as §1

GALAP (Galium) = experiment: Preemergence herbicidal evaluation; type: in vivo, Galium aparine; details: rated 4-5 weeks after treatment
In short: (§2)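 Scores use a 0–9 visual scale covering stand, vigor, malformation, size and chlorosis relative to controls, rated four to five weeks after treatment. Before emergence, soil-planted seeds were sprayed with compound in aqueous acetone at roughly 0.0156–0.500 kg/ha and held in the greenhouse.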

ECHCG (Barnyardgrass) = experiment: Preemergence herbicidal evaluation; type: in vivo, Echinochloa crus-galli; details: rated 4-5 weeks after treatment
In short: as §2

[3] = system: GLXMAW (Soybean, Williams); experiment: Preemergence herbicidal evaluation; type: in vivo, Glycine max, (L.) Merr. cv Williams; details: rated 4-5 weeks after treatment
In short: as §2

ORYSAT (Rice, Tebonnet) [4] = experiment: Rice tolerance to post-transplant applications, flooded paddy conditions (Table III); type: in vivo, Oryza sativa, (L.) Tebonnet
In short: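 Injury scored 0-9 by eye against untreated control, judging stand, vigor, malformation, size and chlorosis, three to four weeks after treatment. Compound in 50/50 aqueous/acetone, about 0.0313 to 0.500 kg/ha, was applied to paddy water (1.5 to 3 cm depth) three days after transplanting paired ten-day-old Tebonnet rice seedlings.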

MOOVA (Monochoria) = experiment: Postemergence weed control under flooded paddy conditions; type: in vivo, Monochoria vaginalis; details: postemergence weeds, 3-4 weeks after treatment
In short: (§3)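 Injury ratings (0–9 scale covering stand, vigor, malformation, size, chlorosis and overall appearance versus control) were made three to four weeks after treatment. Test material, about 0.0313 to 0.500 kg/ha a.i. in 50/50 v/v aqueous/acetone, was added to flood water 1.5 to 3 cm deep over 3 to 5 cm weeds and 1.5 to 2.5 leaf rice.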

ORYSAT (Rice, Tebonnet) [5] = experiment: Rice tolerance to post-transplant applications, flooded paddy conditions (Table IV); type: in vivo, Oryza sativa, (L.) Tebonnet
In short: as §3

[6] = 0.1250 kg/ha, post-transplant rice, flooded paddy, rated 3-4 weeks after treatment
[7] = 0.2500 kg/ha, post-transplant rice, flooded paddy, rated 3-4 weeks after treatment
[8] = rate 0.1250 kg/ha, flooded paddy, post-transplant rice, 3-4 weeks after treatment
[9] = rate 0.2500 kg/ha, flooded paddy, post-transplant rice, 3-4 weeks after treatment

| Compound | Postemergence herbicidal rating CHEAL ([1]; Rate 0.0156 kg/ha) | Postemergence herbicidal rating CHEAL ([1]; Rate 0.0313 kg/ha) | Postemergence herbicidal rating CHEAL ([1]; Rate 0.0625 kg/ha) | Postemergence herbicidal rating IPOHE ([2]; Rate 0.0156 kg/ha) | Postemergence herbicidal rating IPOHE ([2]; Rate 0.0313 kg/ha) | Postemergence herbicidal rating IPOHE ([2]; Rate 0.0625 kg/ha) | Preemergence herbicidal rating GALAP (GALAP (Galium); rate 0.0156 kg/ha) | Preemergence herbicidal rating GALAP (GALAP (Galium); rate 0.0313 kg/ha) | Preemergence herbicidal rating GALAP (GALAP (Galium); rate 0.0625 kg/ha) | Preemergence herbicidal rating GALAP (GALAP (Galium); rate 0.1250 kg/ha) | Preemergence herbicidal rating GALAP (GALAP (Galium); rate 0.2500 kg/ha) | Preemergence herbicidal rating ECHCG (ECHCG (Barnyardgrass); rate 0.0313 kg/ha) | Preemergence herbicidal rating ECHCG (ECHCG (Barnyardgrass); rate 0.0625 kg/ha) | Preemergence herbicidal rating ECHCG (ECHCG (Barnyardgrass); rate 0.1250 kg/ha) | Preemergence herbicidal rating ECHCG (ECHCG (Barnyardgrass); rate 0.2500 kg/ha) | Preemergence herbicidal rating GLXMAW ([3]; rate 0.0313 kg/ha) | Preemergence herbicidal rating GLXMAW ([3]; rate 0.0625 kg/ha) | Preemergence herbicidal rating GLXMAW ([3]; rate 0.1250 kg/ha) | Preemergence herbicidal rating GLXMAW ([3]; rate 0.2500 kg/ha) | Herbicidal rating MOOVA (MOOVA (Monochoria); rate 0.2500 kg/ha) | other results |
| --- | --- | --- | --- | --- | --- | --- | --- | --- | --- | --- | --- | --- | --- | --- | --- | --- | --- | --- | --- | --- | --- |
| CCOC(=O)CN1C(=O)C[S+]([O-])/C1=N/c1cc(-n2c(=O)cc(C(F)(F)F)n(C)c2=O)c(F)cc1Cl (stereo not drawn) [Compound 45, 2-{{2-Chloro-5-[3,6-dihydro-3-methyl-2,6-dioxo-4-(trifluoromethyl)-1(2H)-pyrimidinyl]-4-fluoro-phenyl}imino}-4-oxo-3-thiazolidineacetic acid, ethyl ester, 1-oxide] | 0.0 | 5.0 | 9.0 | 9.0 | 9.0 | 9.0 | 0.0 | 0.0 | 0.0 | 0.0 | 7.0 | 0.0 | 0.0 | 0.0 | 0.0 | 0.0 | 0.0 | 0.0 | 3.0 | 9.0 | Preemergence herbicidal rating ECHCG (ECHCG (Barnyardgrass); rate 0.0156 kg/ha): 0.0; Preemergence herbicidal rating GLXMAW ([3]; rate 0.0156 kg/ha): 0.0; Herbicidal rating ORYSAT (rice tolerance) (ORYSAT (Rice, Tebonnet) [4]; 0.0313 kg/ha, post-transplant rice, flooded paddy, rated 3-4 weeks after treatment): 3.0; Herbicidal rating ORYSAT (rice tolerance) (ORYSAT (Rice, Tebonnet) [4]; 0.0625 kg/ha, post-transplant rice, flooded paddy, rated 3-4 weeks after treatment): 2.0; Herbicidal rating ORYSAT (rice tolerance) (ORYSAT (Rice, Tebonnet) [4]; [6]): 2.0; Herbicidal rating ORYSAT (rice tolerance) (ORYSAT (Rice, Tebonnet) [4]; [7]): 3.0; Herbicidal rating MOOVA (MOOVA (Monochoria); rate 0.0313 kg/ha): 7.0; Herbicidal rating MOOVA (MOOVA (Monochoria); rate 0.0625 kg/ha): 7.0; Herbicidal rating MOOVA (MOOVA (Monochoria); rate 0.1250 kg/ha): 9.0; Herbicidal rating ORYSAT (rice tolerance) (ORYSAT (Rice, Tebonnet) [5]; rate 0.0313 kg/ha, flooded paddy, post-transplant rice, 3-4 weeks after treatment): 3.0; Herbicidal rating ORYSAT (rice tolerance) (ORYSAT (Rice, Tebonnet) [5]; rate 0.0625 kg/ha, flooded paddy, post-transplant rice, 3-4 weeks after treatment): 2.0; Herbicidal rating ORYSAT (rice tolerance) (ORYSAT (Rice, Tebonnet) [5]; [8]): 2.0; Herbicidal rating ORYSAT (rice tolerance) (ORYSAT (Rice, Tebonnet) [5]; [9]): 3.0 |
| O=C(O)CC1SC(=Nc2cc(N3C(=O)C4=C(CCCC4)C3=O)c(F)cc2Cl)N(CC(=O)O)C1=O (stereo not drawn) [Compound 48, 2-{[2-Chloro-5-(1-cyclohexene-1,2-dicarboximido)-4-fluorophenyl]imino}-4-oxo-3,5-thiazolidinediacetic acid] | 3.0 | 4.0 | 4.0 | 9.0 | 9.0 | 9.0 | 0.0 | 0.0 | 0.0 | 0.0 | 0.0 | 0.0 | 0.0 | 0.0 | 0.0 | 0.0 | 0.0 | 0.0 | 2.0 | 6.0 | Preemergence herbicidal rating ECHCG (ECHCG (Barnyardgrass); rate 0.0156 kg/ha): 0.0; Preemergence herbicidal rating GLXMAW ([3]; rate 0.0156 kg/ha): 0.0; Herbicidal rating ORYSAT (rice tolerance) (ORYSAT (Rice, Tebonnet) [4]; [6]): 4.0; Herbicidal rating ORYSAT (rice tolerance) (ORYSAT (Rice, Tebonnet) [4]; [7]): 6.0; Herbicidal rating MOOVA (MOOVA (Monochoria); rate 0.1250 kg/ha): 3.0; Herbicidal rating ORYSAT (rice tolerance) (ORYSAT (Rice, Tebonnet) [5]; [8]): 4.0; Herbicidal rating ORYSAT (rice tolerance) (ORYSAT (Rice, Tebonnet) [5]; [9]): 6.0 |
| Cn1c(C(F)(F)F)cc(=O)n(-c2cc(/N=C3/SCC(=O)N3CC(=O)O)c(Cl)cc2F)c1=O [Compound 52, 2-{{2-Chloro-5-[3,6-dihydro-3-methyl-2,6-dioxo-4-(trifluoromethyl)-1(2H)-pyrimidinyl]-4-fluoro-phenyl}imino}-4-oxo-3-thiazolidineacetic acid] |  |  |  |  |  |  |  | 0.0 | 0.0 | 0.0 | 7.0 | 0.0 | 0.0 | 0.0 | 1.0 | 0.0 | 1.0 | 1.0 | 2.0 | 4.0 | Postemergence herbicidal rating CHEAL ([1]; Rate 0.0158 kg/ha): 4.0; Postemergence herbicidal rating CHEAL ([1]; Rate 0.0315 kg/ha): 4.0; Postemergence herbicidal rating CHEAL ([1]; Rate 0.0630 kg/ha): 6.0; Postemergence herbicidal rating IPOHE ([2]; Rate 0.0158 kg/ha): 4.0; Postemergence herbicidal rating IPOHE ([2]; Rate 0.0315 kg/ha): 9.0; Postemergence herbicidal rating IPOHE ([2]; Rate 0.0630 kg/ha): 9.0; Herbicidal rating ORYSAT (rice tolerance) (ORYSAT (Rice, Tebonnet) [4]; in vivo): 0.0; Herbicidal rating ORYSAT (rice tolerance) (ORYSAT (Rice, Tebonnet) [5]; in vivo): 0.0 |
